Experimental data published in PMC6934184, “Selective DNA-PKcs inhibition extends the therapeutic index of localized radiotherapy and chemotherapy” (The Journal of Clinical Investigation, 2019).

Target: T1, PRKCB1 (PKC beta I) (Homo sapiens, UniProt P05771)
T1 construct: purchased Thermo Fisher Scientific (Life Technologies) SelectScreen
Assay: SelectScreen Z'LYTE
Type: biochemical
Description: The in vitro kinase selectivity of NU5455 was determined using the SelectScreen Broad Assay Panel (Thermo Fisher Scientific) involving activity and binding assays (Supplemental Table 1). […] Class IA PI3Ks were measured using the p85α subunit.
Kinase [ATP] % Assay Kinase [ATP] % Assay Kinase [ATP] % Assay Kinase [ATP] % Assay
DNA-PK Km app 98.3 Z LATS2 n/a 4.7 L KIT D820E n/a 1.3 L GSK3B (GSK3 beta) Km app -2.5 Z
PIK3C3 (hVPS34) Km app 85.9 A PRKCZ (PKC zeta) Km app 4.7 Z GRK1 n/a 1.3 L BMPR2 n/a -2.5 L
PIK3C2B (PI3K-C2 beta) 10 28.9 A FGFR1 Km app 4.7 Z BRSK2 n/a 1.2 L CDC42 BPB (MRCKB) Km app -2.5 Z
SNF1LK2 Km app 26.6 Z MINK1 Km app 4.6 Z NUAK1 (ARK5) Km app 1.2 A AMPK (A2/B2/G2) n/a -2.6 L
HCK Km app 18.0 Z CSF1R (FMS) Km app 4.3 Z CDK9/cyclin K n/a 1.0 L PRKG1 Km app -2.7 Z
NEK2 Km app 17.8 Z CSNK1G3 (CK1 gamma 3) Km app 4.2 Z NUAK2 n/a 1.0 L KIT T670E n/a -2.8 L
ALK Km app 17.3 Z STK32C (YANK3) n/a 4.2 L CDK2/cyclin O n/a 0.9 L ERBB4 (HER4) Km app -2.8 Z
FGFR3 K650M n/a 16.5 L STK22D (TSSK1) Km app 4.2 Z CAMKK2 (CaMKK beta) n/a 0.9 L PLK4 n/a -2.8 L
SIK3 n/a 16.1 L TAOK3 (JIK) n/a 4.2 L FGFR3 Km app 0.9 Z GRK7 Km app -3.0 Z
LYN A Km app 15.2 Z RPS6KA4 (MSK2) Km app 4.2 Z ULK2 n/a 0.9 L MAPKAPK2 Km app -3.1 Z
BMPR1B (ALK6) n/a 14.5 L PTK2B (FAK2) Km app 4.2 Z KIT D816V n/a 0.9 L FGFR4 Km app -3.1 Z
INSRR (IRR) Km app 14.1 Z CLK2 Km app 4.1 Z CAMK1 (CaMK1) 10 0.8 A CASK n/a -3.1 L
PLK2 Km app 14.1 Z STK24 (MST3) Km app 4.1 Z PTK6 (Brk) Km app 0.7 Z GRK5 Km app -3.2 Z
PRKACA (PKA) Km app 14.0 Z CAMK1D (CaMKI delta) Km app 4.1 Z CAMK2B (CaMKII beta) Km app 0.7 Z EGFR (ErbB1) T790M Km app -3.3 Z
EIF2AK2 (PKR) n/a 13.3 L INSR Km app 4.1 Z ACVR1 (ALK2) n/a 0.7 L PAK4 Km app -3.3 Z
PRKX Km app 12.5 Z IRAK1 Km app 4.0 A ABL1 H396P n/a 0.6 L DAPK3 (ZIPK) Km app -3.4 Z
FGR Km app 12.1 Z SRC N1 Km app 3.9 Z MERTK (cMER) A708S n/a 0.6 L RET M918T n/a -3.5 L
CLK1 Km app 11.7 Z SRPK2 Km app 3.9 Z MAPKAPK5 (PRAK) Km app 0.6 Z PRKCQ (PKC theta) Km app -3.7 Z
MARK3 Km app 11.4 Z RPS6KA6 (RSK4) Km app 3.8 Z AKT1 (PKB alpha) Km app 0.5 Z CAMKK1 (CAMKKA) n/a -3.8 L
PDGFRB (PDGFR beta) Km app 11.0 Z GRK6 Km app 3.7 Z NTRK3 (TRKC) Km app 0.4 Z FLT3 D835Y Km app -3.9 Z
PRKCN (PKD3) Km app 10.7 Z PKN1 (PRK1) Km app 3.6 Z ZAP70 Km app 0.3 Z ROCK2 Km app -4.1 Z
STK16 (PKL12) n/a 10.5 L MAP3K8 (COT) 100 3.5 Z CSNK1A1 (CK1 alpha 1) Km app 0.3 Z CHUK (IKK alpha) Km app -4.2 A
FES (FPS) Km app 10.4 Z FLT4 (VEGFR3) Km app 3.5 Z MYLK (MLCK) n/a 0.2 L AXL Km app -4.2 Z
ABL1 Km app 10.4 Z GRK4 Km app 3.5 Z MKNK2 (MNK2) n/a 0.2 L PIM2 Km app -4.3 Z
MUSK Km app 10.3 Z FRK (PTK5) Km app 3.4 Z AMPK (A1/B1/G3) n/a 0.2 L PAK1 Km app -4.4 Z
MAPK1 (ERK2) Km app 10.1 Z FYN A n/a 3.3 L MAP3K2 (MEKK2) n/a 0.1 L BMPR1A (ALK3) n/a -4.4 L
BRAF 100 9.9 Z CDK1/cyclin A2 n/a 3.3 L CDK8/cyclin C n/a 0.1 L STK4 (MST1) Km app -4.4 Z
IGF1R Km app 9.7 Z KIT V559D T670I n/a 3.1 L MARK2 Km app 0.1 Z PRKCH (PKC eta) Km app -4.6 Z
MAPK14 (p38 alpha) Km app 9.7 Z SPHK2 10 3.1 A ICK n/a 0.0 L SGKL (SGK3) Km app -4.6 Z
LCK Km app 9.6 Z FGFR3 G697C n/a 3.1 L FGFR2 Km app 0.0 Z PI4KB (PI4K beta) Km app -4.7 A
MAPK11 (p38 beta) Km app 9.5 Z RIPK2 n/a 3.1 L AKT2 (PKB beta) Km app 0.0 Z PRKCE (PKC epsilon) Km app -4.9 Z
SRC Km app 9.5 Z PAK6 Km app 3.0 Z EPHB2 Km app -0.1 Z PHKG1 Km app -5.0 Z
CHEK1 (CHK1) Km app 9.3 Z LYN B Km app 3.0 Z TGFBR2 n/a -0.1 L PDGFRA D842V Km app -5.0 Z
CAMK2D (CaMKII delta) Km app 9.3 Z DAPK2 n/a 2.9 L TEK (Tie2) Km app -0.1 Z PRKG2 (PKG2) Km app -5.1 Z
PLK1 Km app 9.2 Z EPHA4 Km app 2.9 Z AURKA (Aurora A) Km app -0.1 Z TYRO3 (RSE) Km app -5.1 Z
RET Y791F Km app 9.2 Z PIK3CG (p110 gamma) Km app 2.9 A KIT D816H n/a -0.2 L TAOK2 (TAO1) Km app -5.1 Z
FLT3 Km app 9.1 Z HIPK1 (Myak) Km app 2.8 Z KIT N822K n/a -0.2 L EPHB4 Km app -5.3 Z
MAPK10 (JNK3) 100 9.0 Z ADRBK2 (GRK3) Km app 2.8 Z PRKACG (PRKAC gamma) n/a -0.2 L AURKC (Aurora C) Km app -5.4 Z
CSNK2A2 (CK2 alpha 2) Km app 8.7 Z STK17B (DRAK2) n/a 2.7 L TEK (TIE2) Y1108F n/a -0.3 L JAK1 Km app -5.7 Z […]

T1 sequence (P05771 whole entry): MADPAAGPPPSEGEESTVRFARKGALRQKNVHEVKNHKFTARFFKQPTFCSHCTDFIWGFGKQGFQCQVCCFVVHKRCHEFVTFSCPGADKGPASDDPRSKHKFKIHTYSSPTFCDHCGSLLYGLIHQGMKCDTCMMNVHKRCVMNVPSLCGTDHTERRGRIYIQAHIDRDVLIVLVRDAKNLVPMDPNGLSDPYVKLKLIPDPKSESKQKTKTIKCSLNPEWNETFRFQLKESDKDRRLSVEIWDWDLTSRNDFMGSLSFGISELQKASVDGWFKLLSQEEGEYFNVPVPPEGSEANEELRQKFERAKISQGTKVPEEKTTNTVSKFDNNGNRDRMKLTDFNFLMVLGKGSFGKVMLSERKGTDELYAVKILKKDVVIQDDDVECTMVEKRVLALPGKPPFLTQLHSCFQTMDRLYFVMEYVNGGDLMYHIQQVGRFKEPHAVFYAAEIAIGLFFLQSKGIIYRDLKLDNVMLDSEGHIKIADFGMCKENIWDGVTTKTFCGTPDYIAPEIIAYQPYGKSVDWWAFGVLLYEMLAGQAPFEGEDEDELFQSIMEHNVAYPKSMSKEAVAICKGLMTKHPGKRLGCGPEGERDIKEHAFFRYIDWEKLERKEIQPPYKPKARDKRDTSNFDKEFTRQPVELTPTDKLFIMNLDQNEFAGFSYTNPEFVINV

CN(C(=O)CN1CCOCC1)c1ccc2sc3c(-c4cccc5c(=O)cc(N6CC7CCC(C6)O7)oc45)cccc3c2c1 [NU5455]
inhibition at 1 µM: -0.7%
